Source: patent US6737383B1, “Herbicidal oxadiazolidines” (priority 1999, dated 2004)

Assays:
surinam grass = test: Test B pre/postemergence surinam grass; type: in vivo, Brachiaria decumbens
How it was run: (§1)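 Test chemicals in a non-phytotoxic solvent mixture with surfactant were sprayed preemergence onto planted seeds and postemergence onto plants 2 to 18 cm tall (1- to 4-leaf stage). After twelve to sixteen days in a greenhouse, injury was visually rated against untreated controls from 0 (no effect) to 10 (complete control).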

bedstraw = test: Test B pre/postemergence bedstraw; type: in vivo, Galium aparine; conditions: Postemergence
How it was run: as §1

smallflower flatsedge = test: Test B flood test smallflower flatsedge; type: in vivo, Cyperus difformis
How it was run: (§2)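 Plants were grown to the 2-leaf stage before treatment with test chemical, then held in a greenhouse for twelve to sixteen days. Injury was visually rated against untreated controls on a 0–10 scale, where 0 is no effect and 10 is complete control.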

blackgrass = test: Test B pre/postemergence blackgrass; type: in vivo, Alopecurus myosuroides
How it was run: as §1

wheat = test: Test B pre/postemergence wheat; type: in vivo, Triticum aestivum
How it was run: as §1

velvetleaf = test: Test B pre/postemergence velvetleaf; type: in vivo, Abutilon theophrasti
How it was run: as §1

pigweed = test: Test B pre/postemergence pigweed; type: in vivo, Amaranthus retroflexus
How it was run: as §1

rape = test: Test B pre/postemergence rape; type: in vivo, Brassica napus
How it was run: as §1

sugar beet = test: Test B pre/postemergence sugar beet; type: in vivo, Beta vulgaris
How it was run: as §1

wild oat = test: Test B pre/postemergence wild oat; type: in vivo, Avena fatua
How it was run: as §1

purple nutsedge = test: Test B pre/postemergence purple nutsedge; type: in vivo, Cyperus rotundus
How it was run: as §1

corn = test: Test B pre/postemergence corn; type: in vivo, Zea mays
How it was run: as §1

cocklebur = test: Test B pre/postemergence cocklebur; type: in vivo, Xanthium strumarium
How it was run: as §1

duck salad = test: Test B flood test duck salad; type: in vivo, Heteranthera limosa
How it was run: as §2

morningglory = test: Test B pre/postemergence morningglory; type: in vivo, Ipomoea hederacea
How it was run: as §1

crabgrass = test: Test B pre/postemergence crabgrass; type: in vivo, Digitaria sanguinalis
How it was run: as §1

[1] = Postemergence, Rate 62 g/ha, scale 0 to 10, 0 is no effect, 10 is complete control
[2] = Postemergence, Rate 125 g/ha, scale of 0 to 10 where 0 is no effect and 10 is complete control
[3] = Postemergence, Rate 250 g/ha, scale of 0 to 10, 0 is no effect, 10 is complete control
[4] = Postemergence, Rate 500 g/ha, scale of 0 to 10 where 0 is no effect and 10 is complete control
[5] = Preemergence, Rate 62 g/ha, scale 0 to 10 (0 no effect, 10 complete control)
[6] = Preemergence, Rate 125 g/ha, scale of 0 to 10 where 0 is no effect and 10 is complete control
[7] = Preemergence, Rate 250 g/ha, scale 0 to 10 (0 no effect, 10 complete control)
[8] = Preemergence, Rate 500 g/ha, scale of 0 to 10 where 0 is no effect and 10 is complete control
[9] = Rate 62 g/ha, flood test species, Pre-emergence, visual evaluation after twelve to sixteen days
[10] = Rate 125 g/ha, under heading Pre-emergence, flood test species, visual evaluation after twelve to sixteen days
[11] = Rate 250 g/ha, Pre-emergence (flood test species), scale 0 to 10, 0 is no effect, 10 is complete control
[12] = Rate 500 g/ha, Pre-emergence section of Table B, 0 to 10 scale (0 no effect, 10 complete control)

Compound: CCOC(Cn1c(=O)on(C(=O)N(c2ccc(Cl)cc2)C(C)C)c1=O)OCC [Compound 633]
- Plant response rating, B. signalgrass (surinam grass; [1]): 0
- Plant response rating, B. signalgrass (surinam grass; [2]): 0
- B. signalgrass plant response rating (surinam grass; [3]): 0
- Plant response rating, B. signalgrass (surinam grass; [4]): 5
- B. signalgrass plant response rating (surinam grass; [5]): 0
- B. signalgrass plant response rating (surinam grass; [6]): 3
- Plant response rating, B. signalgrass (surinam grass; [7]): 6
- Plant response rating, B. signalgrass (surinam grass; [8]): 6
- Plant response rating, Bedstraw (bedstraw; Rate 62 g/ha, scale 0 to 10, 0 is no effect, 10 is complete control): 0
- Plant response rating, Bedstraw (bedstraw; Rate 125 g/ha, scale of 0 to 10 where 0 is no effect and 10 is complete control): 0
- Bedstraw plant response rating (bedstraw; Rate 250 g/ha, scale of 0 to 10, 0 is no effect, 10 is complete control): 0
- Plant response rating, S. Flatsedge (0 to 10 scale, 0 is no effect, 10 is complete control) (smallflower flatsedge; [9]): 0
- S. Flatsedge plant response rating (0 to 10 scale, 0 is no effect, 10 is complete control) (smallflower flatsedge; [10]): 0
- S. Flatsedge plant response rating (smallflower flatsedge; [11]): 0
- S. Flatsedge plant response rating (smallflower flatsedge; [12]): 0
- Plant response rating, Blackgrass (blackgrass; [1]): 0
- Plant response rating, Blackgrass (blackgrass; [2]): 0
- Blackgrass plant response rating (blackgrass; [3]): 4
- Plant response rating, Blackgrass (blackgrass; [4]): 8
- Blackgrass plant response rating (blackgrass; [5]): 0
- Blackgrass plant response rating (blackgrass; [6]): 3
- Plant response rating, Blackgrass (blackgrass; [7]): 5
- Plant response rating, Blackgrass (blackgrass; [8]): 7
- Plant response rating, Wheat (wheat; [1]): 0
- Plant response rating, Wheat (wheat; [2]): 0
- Wheat plant response rating (wheat; [3]): 0
- Wheat plant response rating (wheat; [5]): 0
- Wheat plant response rating (wheat; [6]): 0
- Plant response rating, Wheat (wheat; [7]): 0
- Plant response rating, Wheat (wheat; [8]): 0
- Plant response rating, Velvetleaf (velvetleaf; [1]): 0
- Plant response rating, Velvetleaf (velvetleaf; [2]): 0
- Velvetleaf plant response rating (velvetleaf; [3]): 0
- Velvetleaf plant response rating (velvetleaf; [5]): 0
- Velvetleaf plant response rating (velvetleaf; [6]): 0
- Plant response rating, Velvetleaf (velvetleaf; [7]): 0
- Plant response rating, Velvetleaf (velvetleaf; [8]): 0
- Plant response rating, Redroot pigweed (pigweed; [1]): 0
- Plant response rating, Redroot pigweed (pigweed; [2]): 0
- Redroot pigweed plant response rating (pigweed; [3]): 1
- Redroot pigweed plant response rating (pigweed; [5]): 0
- Redroot pigweed plant response rating (pigweed; [6]): 0
- Plant response rating, Redroot pigweed (pigweed; [7]): 2
- Plant response rating, Redroot pigweed (pigweed; [8]): 4
- Plant response rating, Rape (rape; [1]): 0
- Plant response rating, Rape (rape; [2]): 0
- Rape plant response rating (rape; [3]): 0
- Plant response rating, Rape (rape; [4]): 0
- Rape plant response rating (rape; [5]): 0
- Rape plant response rating (rape; [6]): 0
- Plant response rating, Rape (rape; [7]): 1
- Plant response rating, Rape (rape; [8]): 4
- Plant response rating, Sugarbeets (sugar beet; [1]): 0
- Plant response rating, Sugarbeets (sugar beet; [2]): 0
- Sugarbeets plant response rating (sugar beet; [3]): 0
- Sugarbeets plant response rating (sugar beet; [5]): 0
- Sugarbeets plant response rating (sugar beet; [6]): 0
- Plant response rating, Sugarbeets (sugar beet; [7]): 0
- Plant response rating, Sugarbeets (sugar beet; [8]): 0
- Plant response rating, Wild oats (wild oat; [1]): 0
- Plant response rating, Wild oats (wild oat; [2]): 0
- Wild oats plant response rating (wild oat; [3]): 0
- Wild oats plant response rating (wild oat; [5]): 0
- Wild oats plant response rating (wild oat; [6]): 2
- Plant response rating, Wild oats (wild oat; [7]): 3
- Plant response rating, Wild oats (wild oat; [8]): 5
- Plant response rating, Nutsedge (purple nutsedge; [1]): 0
- Plant response rating, Nutsedge (purple nutsedge; [2]): 0
- Nutsedge plant response rating (purple nutsedge; [3]): 0
- Plant response rating, Nutsedge (purple nutsedge; [4]): 0
- Nutsedge plant response rating (purple nutsedge; [5]): 0
- Nutsedge plant response rating (purple nutsedge; [6]): 0
- Plant response rating, Nutsedge (purple nutsedge; [7]): 0
- Plant response rating, Nutsedge (purple nutsedge; [8]): 0
- Plant response rating, Corn (corn; [1]): 0
- Plant response rating, Corn (corn; [2]): 0
- Corn plant response rating (corn; [3]): 0
- Plant response rating, Corn (corn; [4]): 0
- Corn plant response rating (corn; [5]): 0
- Corn plant response rating (corn; [6]): 0
- Plant response rating, Corn (corn; [7]): 0
- Plant response rating, Corn (corn; [8]): 2
- Plant response rating, Cocklebur (cocklebur; [1]): 0
- Plant response rating, Cocklebur (cocklebur; [2]): 0
- Cocklebur plant response rating (cocklebur; [3]): 0
- Plant response rating, Cocklebur (cocklebur; [4]): 0
- Cocklebur plant response rating (cocklebur; [5]): 0
- Cocklebur plant response rating (cocklebur; [6]): 0
- Plant response rating, Cocklebur (cocklebur; [7]): 0
- Plant response rating, Cocklebur (cocklebur; [8]): 0
- Plant response rating, Ducksalad (0 to 10 scale, 0 is no effect, 10 is complete control) (duck salad; [9]): 0
- Ducksalad plant response rating (0 to 10 scale, 0 is no effect, 10 is complete control) (duck salad; [10]): 0
- Ducksalad plant response rating (duck salad; [11]): 0
- Ducksalad plant response rating (duck salad; [12]): 0
- Plant response rating, Morningglory (morningglory; [1]): 1
- Plant response rating, Morningglory (morningglory; [2]): 2
- Morningglory plant response rating (morningglory; [3]): 5
- Plant response rating, Morningglory (morningglory; [4]): 5
- Morningglory plant response rating (morningglory; [5]): 0
- Morningglory plant response rating (morningglory; [6]): 0
- Plant response rating, Morningglory (morningglory; [7]): 0
- Plant response rating, Morningglory (morningglory; [8]): 0
- Plant response rating, Crabgrass (crabgrass; [1]): 0
- Plant response rating, Crabgrass (crabgrass; [2]): 0
- Crabgrass plant response rating (crabgrass; [3]): 3
- Plant response rating, Crabgrass (crabgrass; [4]): 9
- Crabgrass plant response rating (crabgrass; [5]): 5
- Crabgrass plant response rating (crabgrass; [6]): 8
- Plant response rating, Crabgrass (crabgrass; [7]): 9
- Plant response rating, Crabgrass (crabgrass; [8]): 9
